Data as given in patent publication US10758607B2, “Respiratory syncytial virus having cleavage-resistant G protein and related materials and methods” (The Research Institute at Nationwide Children's Hospital, priority 2015, dated 2020).
“Also recorded” adds a separate entry of the source. Where a SMILES comes first, the peptide text is derived from it.

How the values were obtained:
[1] = test system: RSV G protein cleavage in Vero cells; test: Cleavage of mutant G proteins transiently expressed in Vero cells (immunoblot); format: cell-based; conditions: for resistance to cleavage of alanine substitution G protein mutants: 24 hours post-transfection; for cleavage of G protein deletion mutants: 24 h post-transfection, vs wt G protein
Experimental: The G gene in the region of amino acid 210 was modified by deleting stretches of amino acids in this region (200-211, 204-213, 206-215, 208-217, or 209-213). […] Most of the mutants almost completely ablate cleavage. They all share amino acids 208-211. However, A206-210 and A206-215, both of which bring together amino acids that can also serve as a cathepsin L cleavage site. For FIG. 6B, the mutated G protein genes were transiently expressed in Vero cells. 24 h post-transfection cells were harvested, lysed and proteins were separated by SDS-PAGE, blotted and probed with mAb to the G protein.
To identify which amino acids are important for cleavage, individual amino acids in and around this region were changed to alanine. These mutant G proteins were transiently expressed in Vero cells and assessed by immunoblot (FIG. 6C). For FIG. 6C, the mutated G protein genes were transiently expressed in Vero cells. 24 hours post-transfection cells were harvested, lysed and proteins were separated by SDS-PAGE, blotted and probed with mAb to the G protein.
The strain A2 G protein plasmid was mutagenized using synthetic double strand gBlock DNA (Integrated DNA Technologies). Van91I (Thermo Fisher) and Xho I (New England Biolabs) were used to digest plasmid and gBlock. Doubly-digested plasmid was isolated by agarose gel electrophoresis. Digested gBlock and eluted plasmid DNAs were ligated with T4 DNA ligase (Promega, Madison, Wis.), and transformed into One Shot MachI-T1 chemically competent bacteria (Life Technologies). Plasmids were extracted using HiSpeed or Plasmid Plus Maxi kits (Qiagen).
Wild type G or frG proteins were expressed in HeLa or Vero cells following plasmid transfection with FuGene HD (Promega) or Lipofectamine LTX (Life Technologies), respectively, in medium containing 2% FBS. In frG experiments, medium was collected and concentrated using Ultracel-10 K centrifugal filters (EMD Millipore, Billerica, Mass.). For other transfection experiments, Vero cells were transfected using Lipofectamine 3000 (Life Technologies) in medium containing 10% FBS. For all transfection experiments, cells were lysed and protein quantified by BCA assay. Equivalent HeLa or Vero cell lysate protein and equivalent volumes of concentrated proteins from the medium were analyzed by immunoblotting.

[2] = test system: RSV G protein cleavage in Vero cells; test: Cell-surface RSV G protein cleavage in rgRSV-infected cells treated with protease inhibitors (biotinylation, immunoblot with mAb L9); format: cell-based; conditions: 24 hpi
Experimental: To elucidate the class of protease responsible for G protein cleavage in Vero cells, cells were treated with increasing concentrations of protease inhibitors after inoculating with recombinant green fluorescent protein expressing RSV (rgRSV). Cells were incubated with rgRSV for 2 h with tipping at 37° C. before replacing inoculum with fresh cell culture medium. Drugs were added at different times post infection. In each case, uninfected, no drug, and vehicle (at the highest concentration used) were included in all experiments as controls. In all experiments at 24 hpi, cell surface proteins were biotinylated, cells lysed and equivalent amounts of protein from each sample were mixed with streptavidin beads.
Aprotinin, a serine protease inhibitor, leupeptin, a serine/cysteine protease inhibitor; or E-64, a cysteine protease inhibitor were added to the cell culture media (3.125 to 50 μg/ml) from 2-24 hpi. The most likely proteins to be incorporated into the virions are cell surface proteins, so the cell surfaced was biotinylated, proteins isolated from lysed cells with streptavidin beads, and immunobloted with L9, a mAb to the G protein, as a probe (FIG. 1A). In the untreated and vehicle treated samples most of the cell surface G protein was cleaved (˜55 kDa), leaving only a small portion of full length (˜90 kDa) G protein. […] Since both leupeptin and E64 block the activity of cysteine proteases, the protease responsible for cleavage of the G protein in Vero cells is a cysteine protease.
To narrow the field of cysteine proteases, cells were treated at 6 hpi with a more specific cysteine protease inhibitor, ALLM (0.1 to 100 μM).
RSV-infected HeLa and Vero cells were treated with a cathepsin B inhibitor, CA-074 (0.1 to 100 μM), or a cathepsin L inhibitor, cathepsin L inhibitor III (0.1 to 100 μM) 6 hpi.
Cathepsin L is a protease present primarily in the interior of the lysosome and is optimally active at acidic pH. Vero cells expressing the G protein were treated with chloroquine to raise the pH of the lysosome. […] To generate FIG. 4C, cells were inoculated with RSV or mock inoculated. 6 hpi the cells were treated with increasing concentrations of chloroquine. 24 hpi cells were biotinylated and G protein assayed
HeLa and Vero cells were rgRSV (MOI: 1) or mock inoculated. 2 hpi the inoculum was replaced with fresh complete medium, and 4 hpi cells the medium was changed again to complete medium with 2-fold dilutions of these protease inhibitors (Sigma-Aldrich, St. Louis, Mo.), dissolved in water: Aprotinin (3.125 to 50 μg/ml); Leupeptin (6.25 to 100 μg/ml); E-64 (6.25 to 100 μg/ml); or equal volumes of water in medium. In other experiments, cells were treated at 6 hpi with: 10-fold dilutions (0.1 to 100 μM) of: Cathepsin inhibitor I (Calbiochem); ALLM (Santa Cruz, Dallas, Tex.); Chloroquine diphosphate salt (Sigma Aldrich) or equivalent volumes of vehicle (water); CA-074 (Calbiochem); Cathepsin L inhibitor III (Calbiochem); or an equal volume of vehicle (DMSO) in medium.
At 24 hpi cells were biotinylated with Ez-link Sulfo-NHS-LC-Biotin (Thermo Fisher). Cells were lysed with lysis buffer containing 150 mM NaCl, 1% Triton X-100, 50 mM Tris, 0.1% SDS, and 1× Halt protease cocktail inhibitor (Thermo Fisher). Proteins were quantified using BCA protein assay kit (Pierce, Waltham, Mass.), and equal amounts of protein were added to high capacity streptavidin agarose beads (Thermo Fisher). The mixtures were rotated for 1 h at 4° C., the beads were pelleted and washed with lysis buffer (without protease cocktail inhibitor), NuPage LDS sample buffer was added, and boiled for 5 min, separated by NuPAGE Novex 4-12% bis-tris protein gels and transferred to nitrocellulose in an iBlot transfer stack, using the iBlot transferring system (Life Technologies) for immunoblot analysis. […]

[3] = rgRSV-infected Vero cells, 6.24 to 100 μg/ml

K209: RSV strain A2 G protein with alanine substitution at K209
efficiency at inhibiting cleavage (rank among alanine substitutions) [1]: second most efficient
resistance to cleavage of alanine substitution G protein mutants [1]: partially to nearly completely resistant to cleavage

206-215: RSV G protein with amino acids 206-215 deleted
cleavage of G protein deletion mutants [1]: cleaved less efficiently than the wt G protein
cleavage of G protein deletion mutants ([1]; listed as Δ206-215): inhibit but do not abolished protein cleavage

CC(C)C[C@H](NC(=O)[C@H]1O[C@@H]1C(=O)O)C(=O)NCCCCN=C(N)N [E64, E-64]
G protein cleavage (cell surface G protein) [2, 3]: did, in a dose dependent manner
G protein cleavage (cell surface G protein) ([2]; rgRSV-infected Vero cells, 6.24 to 100 μg/ml, listed as E-64): prevention of cleavage

CC(=O)N[C@@H](CC(C)C)C(=O)N[C@@H](CC(C)C)C(=O)N[C@H](C=O)CCCNC(=N)N [leupeptin]
G protein cleavage (cell surface G protein) [2, 3]: did, in a dose dependent manner
G protein cleavage (cell surface G protein) ([2]; rgRSV-infected Vero cells, 6.24 to 100 μg/ml, listed as Leupeptin): prevention of cleavage

K212: RSV strain A2 G protein with alanine substitution at K212
resistance to cleavage of alanine substitution G protein mutants [1]: partially to nearly completely resistant to cleavage

Aprotinin
G protein cleavage (cell surface G protein) ([2]; rgRSV-infected Vero cells, 3.125 to 50 μg/ml): did not prevent G protein cleavage

D214: RSV strain A2 G protein with alanine substitution at D214
resistance to cleavage of alanine substitution G protein mutants [1]: partially to nearly completely resistant to cleavage

Δ206-210
cleavage of G protein deletion mutants [1]: inhibit but do not abolished protein cleavage

CSCC[C@@H](C=O)NC(=O)[C@H](CC(C)C)NC(=O)[C@H](CC(C)C)NC(C)=O [ALLM] (Ac-Leu-Leu-Met-aldehyde)
G protein cleavage (cell surface G protein) ([2]; rgRSV-infected Vero cells, treated at 6 hpi, 0.1 to 100 μM): prevention of cleavage; also recorded: inhibited G protein cleavage

CCN(CC)CCCC(C)Nc1ccnc2cc(Cl)ccc12 (stereo not drawn) [chloroquine]
G protein on the cell surface (cleaved vs full length) ([2]; Vero cells, increasing concentrations of chloroquine from 6 hpi): primarily full length G protein; also recorded: decreased cleavage

CCCNC(=O)[C@H]1O[C@@H]1C(=O)N[C@H](C(=O)N1CCC[C@H]1C(=O)O)[C@@H](C)CC [CA-074]
G protein cleavage (cell surface G protein) ([2]; RSV-infected HeLa and Vero cells, 0.1 to 100 μM at 6 hpi): RSV G protein cleavage in the presence; also recorded: did not change this pattern
